Laboratory results published in patent US5595995A, “Pyridyl-propan-2-yl esters of 1-adamantane carboxylates” (priority 1992, dated 1997).

What was measured:
a species of yeast = conditions: Korytnyk and Fricke, J. Med. Chem. 11, 180-181 (1968); cited from earlier work
[1] = tested on: acute toxicity in mice of 4-vinylpyridine; conditions: J. Med. Chem. 16, 865-867 (1973); cited from earlier work
aromatase = biological target: T1, aromatase (Homo sapiens, UniProt P11511); assay: biochemical
T1 sequence (P11511 1-503): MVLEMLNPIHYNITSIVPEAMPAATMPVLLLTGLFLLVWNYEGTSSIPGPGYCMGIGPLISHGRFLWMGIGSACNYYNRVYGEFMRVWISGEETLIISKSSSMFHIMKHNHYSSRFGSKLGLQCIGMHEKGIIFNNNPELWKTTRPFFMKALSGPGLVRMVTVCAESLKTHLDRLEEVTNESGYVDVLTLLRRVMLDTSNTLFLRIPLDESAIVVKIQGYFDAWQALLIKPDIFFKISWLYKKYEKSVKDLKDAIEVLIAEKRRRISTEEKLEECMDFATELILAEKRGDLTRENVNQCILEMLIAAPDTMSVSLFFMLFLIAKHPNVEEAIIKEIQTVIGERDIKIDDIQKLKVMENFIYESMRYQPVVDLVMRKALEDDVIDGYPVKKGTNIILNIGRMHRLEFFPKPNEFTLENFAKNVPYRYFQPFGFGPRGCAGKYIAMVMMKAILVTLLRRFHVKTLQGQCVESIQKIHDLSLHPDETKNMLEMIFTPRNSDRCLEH

lyase = biological target: T2, lyase (Homo sapiens, UniProt P05093); assay: biochemical
T2 sequence (P05093 1-508): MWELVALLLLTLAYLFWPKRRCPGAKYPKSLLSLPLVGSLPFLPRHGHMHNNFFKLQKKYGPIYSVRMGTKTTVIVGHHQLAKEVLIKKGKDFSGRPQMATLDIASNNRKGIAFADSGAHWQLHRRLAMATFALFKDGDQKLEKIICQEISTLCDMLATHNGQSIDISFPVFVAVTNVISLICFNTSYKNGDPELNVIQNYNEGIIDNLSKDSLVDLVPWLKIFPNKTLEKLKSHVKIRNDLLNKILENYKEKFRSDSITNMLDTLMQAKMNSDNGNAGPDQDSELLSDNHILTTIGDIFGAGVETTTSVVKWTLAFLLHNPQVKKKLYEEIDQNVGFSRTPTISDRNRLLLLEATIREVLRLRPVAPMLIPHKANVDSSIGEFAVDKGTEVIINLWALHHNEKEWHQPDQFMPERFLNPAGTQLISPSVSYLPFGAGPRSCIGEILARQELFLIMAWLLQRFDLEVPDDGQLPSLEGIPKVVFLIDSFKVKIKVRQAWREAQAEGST
Procedure: (§1) In the hydroxylase assay, the "Nucleosil" pre-column for separation of steroids was also "C18". In the lyase assay, the reaction was stopped after 1/2 hour. […] The enzyme activity was measured from 3 (not 4) concentrations of compound.

hydroxylase = biological target: T3, hydroxylase (Homo sapiens, UniProt P05093); assay: biochemical
T3 sequence (P05093 1-508): T2 sequence (P05093 1-508)
Procedure: as §1

[2] = biological target: T4, 17α-hydroxylase/C17-20 lyase enzyme complex (Homo sapiens, UniProt P05093); assay: hydroxylase/lyase inhibition, general statements on potency; assay type: biochemical; conditions: of the order of; greater than the less good compounds of formula (3)
T4 construct: for hydroxylase determinations, the microsomal preparation, prepared according to S. E. Bartie et al; from tissue
T4 sequence (P05093 1-508): T2 sequence (P05093 1-508)
Procedure: as §1

[3] = resistance of the esters to hydrolytic cleavage (method of R. McCague et al., 1990); conditions: compared with the other esters of Examples 1-8

Row | SMILES | IC50 (aromatase) | IC50 (lyase) | IC50 (hydroxylase) | other results
1 | Cc1c(COC(=O)C23CC4CC(CC(C4)C2)C3)cc(CO)nc1O |  |  |  | growth inhibition of yeast (a species of yeast): weak growth inhibitors of a species of yeast
2 | Cc1c(COC(=O)C23CC4CC(CC(C4)C2)C3)cnc(CO)c1O |  |  |  | growth inhibition of yeast (a species of yeast): weak growth inhibitors of a species of yeast; reversal of the acute toxicity of 4-vinylpyridine [1]: reverse the acute toxicity in mice of 4-vinylpyridine
3 | CC(CC(=O)C12CC3CC(CC(C3)C1)C2)c1cccnc1 (racemic) [Example 10, (±)-1-(1-Adamantyl)-3-(3-pyridyl)butan-1-one] | 1400 nM | 500 nM | 1300 nM | 
4 | CC(Cc1cccnc1)C(=O)C12CC3CC(CC(C3)C1)C2 (racemic) [Example 11, (±)-1-(1-Adamantyl)-2-methyl-3-(3-pyridyl)propan-1-one] | 2700 nM | 700 nM | 1000 nM | 
5 | O=C(NCc1ccncc1)C1CCCCC1 [Cy NH H H 4, reference compound] |  | 10000 nM | 40000 nM | IC50 against lyase and hydroxylase relative to the less good compounds of formula (3) [2]: ~20 ×
6 | CC(C)(OC(=O)C12CC3CC(CC(C3)C1)C2)c1ccncc1 [Example 4, 2-(4-Pyridyl)propan-2-yl 1-adamantanecarboxylate] |  |  |  | resistance to hydrolytic cleavage [3]: considerably more resistant to cleavage than the other esters
7 | CC(C)(OC(=O)C12CC3CC(CC(C3)C1)C2)c1cccnc1 [Example 8, 2-(3-Pyridyl)propan-2-yl 1-adamantanecarboxylate] |  |  |  | resistance to hydrolytic cleavage [3]: considerably more resistant to cleavage than the other esters
8 | O=C(CCc1cccnc1)C12CC3CC(CC(C3)C1)C2 [Example 9, 1-(1-Adamantyl)-3-(3-pyridyl)propan-1-one] | 3400 nM | 450 nM | 2200 nM | 
